{"source": "patent US9681658B2", "about": "“Penetrants for agrochemical formulations” (CRODA INTERNATIONAL PLC, priority 2012, dated 2017)", "system": "Isolated cuticles from apple leaves (Malus domestica cv. 'Golden Delicious')", "assay": "Leaf penetration (Franz cell diffusion of Imidacloprid through isolated cuticles)", "format": "in vitro ADME", "conditions": "active alone without penetrant", "protocol": "The following test method was used to assess leaf penetration properties of the synthesised ethoxylated polyol alkoxylates P1 to P18.\nFranz cells were set up containing: • Receptor solution: 10 mM sodium phosphate buffer pH 6.0 containing 0.1 mM sodium azide • Donor solution: unformulated pesticide containing 0.5 g/l of Imidacloprid (N-[1-[(6-Chloro-3-pyridyl)methyl]-4,5-dihydroimidazol-2-yl]nitramide) and 2.5 g/l of penetrant, in 5 mM lactic acid (pre-buffered with KOH), preserved with 0.5 mM sodium azide, (+/−0.25% w/v), i.e. 2.5 g/l donor).\nThe Franz cell experiments were used for diffusion experiments. Isolated cuticles from apple leaves (Malus domestica cv. ‘Golden Delicious’) were prepared based on the method detailed in US 2009/0247597. The donor compartment was removed to aid deposit formation. Experiments were performed at a controlled temperature of 20° C., and a controlled relative humidity of 58%. A calibration was carried out (0-100% penetration) obtaining the concentration of Imidacloprid in the receiver solution removed from the Franz Cell.\nHPLC-UV was used to assay imidacloprid concentration using an Agilent 1260 Quaternary LC system. Each penetrant was tested for leaf penetration properties, with a total of 18 Franz cells used for percentage penetration determination. A calibration was carried out before each set of samples was analysed. […]", "data": [{"smiles": "O=[N+]([O-])NC1=NCCN1Cc1ccc(Cl)nc1", "note": "[Imidacloprid, N-[1-[(6-Chloro-3-pyridyl)methyl]-4,5-dihydroimidazol-2-yl]nitramide]", "values": [{"measurement": "% penetration after 72 hours", "value": 1.7, "unit": "%"}]}]}
